Experimental data as given in patent US7368541B2, “Trace amine receptor 1 of the African green monkey” (Merck & Co., Inc., priority 2004, dated 2008).

Molecular target: agmTA1 receptor (Chlorocebus aethiops (Cercopithecus aethiops, African green monkey), UniProt A0A0D9SAC2, I11T/L334F)
Experiment: CRE-luciferase reporter functional assay in HEK293 cells transiently expressing agmTA1 receptor
Assay type: cell-based
Conditions: HEK293 cells transfected with pcDNA3.1-agmTA1 and pCRE-Luc; agonist 0.1 nM to 100 μM, 16 to 18 hours; luciferase activity

Compound	EC50 [nM]
NCCc1c[nH]c2ccccc12 [tryptamine]	~940
NCCc1ccc(O)cc1 [tyramine]	~16
NCC(O)c1ccc(O)cc1 (stereo not drawn) [octopamine]	~200
